Entries after “also recorded” stand apart in the source; their conditions may differ.
B1: purified IFN gamma: purified interferon gamma, cytokine (protein, UniProt P01579 24-161, looked up)
Interferon gamma: QDPYVKEAENLKKYFNAGHSDVADNGTLFLGILKNWKEESDRKIMQSQIVSFYFKLFKNFKDDQSIQKSVETIKEDMNVKFFNSNKKKRDDFEKLTNYSVTDLNVQRKAIHELIQVMAELSPAAKTGKRKRSQMLFRG

Assays:
Format in all cases: cell-based
[1] = test system: HeLa-RIP3^− or HeLa-RIP3^+ cells; test: Dose response for chemotherapeutic agents, cell viability by trypan blue exclusion; conditions: 48 hour exposure; for EC50: read-out: ED50 at 48 hours (cell death)
Experimental: HeLa-RIP3^− or HeLa-RIP3^+ cells (250,000/well) were seeded in six-well plates in complete DMEM medium, and after 24 hours, cells were treated with multiple doses of Fluorouracil. Cell viability was determined 48 hours post treatment via trypan blue exclusion analysis.
HeLa-RIP3^− or HeLa-RIP3^+ cells (250,000/well) were seeded in six-well plates in complete DMEM medium, and after 24 hours, cells were treated with multiple doses of the Trabectedin, Birinapant, or Cisplatin. Cell viability was determined 48 hours post treatment via trypan blue exclusion analysis.

[2] = test system: HeLa (RIP3^+/necroptosis-competent) cells; test: Cell death in the presence of inhibitors of apoptosis and necroptosis; conditions: for cell death: no inhibitor, Trabectedin 2.5 nM (alone or plus AdCMV-NULL); for cell death in the presence of zVAD: pan caspase inhibitor zVAD 50 μM
Experimental: In order to understand which of several possible cell death pathways are activated by Fluorouracil or ASN-002 treatment alone and in combination, experiments were carried out with these agents in the presence of inhibitors of apoptosis and/or necroptosis in HeLa (RIP3^+/necroptosis-competent) cells.
(§1) In order to understand which of several possible cell death pathways are activated by Trabectedin treatment alone and in combination with IFN gamma (virus expressed or exogenously added), experiments were carried out with these agents, alone or in combination, in the presence of inhibitors of apoptosis and/or necroptosis inhibitors in both HeLa (RIP3^+/necroptosis-competent) cells and HeLa (RIP3^−/necroptosis-deficient) cells.

[3] = test system: RIP3^− (necroptosis-deficient) HeLa cells; test: Cell death in the presence of a pan caspase inhibitor of apoptosis; conditions: for cell death: no inhibitor, Trabectedin alone or plus AdCMV-NULL
Experimental: In follow-up experiments, RIP3^− (necroptosis-deficient) HeLa cells were subjected to the same treatments as described above.
as §1

HeLa (RIP3^−) cells = test: Induction of cell death by TNF alpha, trypan blue exclusion; conditions: TNF alpha 50 ng/ml; under any condition; 12-15 hours
HeLa-RIP3^+ cells = test: Induction of cell death by TNF alpha in the presence of cycloheximide and pan caspase inhibitor zVAD, trypan blue exclusion; conditions: TNF alpha 50 ng/ml in the presence of cycloheximide (250 ng/ml) plus zVAD (50 μM); relative to untreated cells
Experimental: HeLa-RIP3 cells (250,000/well) were plated in six-well plates 24 hours prior to treatment with TNF alpha and cycloheximide (TCZ treatment). Cells were pre-treated with CHX (250 ng/ml) and the pan caspase inhibitor zVAD (50 μM) one hour before TNF alpha (50 ng/ml) treatment. Cell viability was determined after 12-15 hours by trypan blue exclusion analysis.

HeLa-RIP3^− cells = conditions: Birinapant 5 μM or 30 μM, 48 hours
Experimental: (§2) HeLa-RIP3^− cells (250,000/well) cells were plated in six-well plates 24 hours prior to infection. ASN-002 infections were performed in serum-free medium at multiplicities of infection (MOI) of 10. Two doses of Fluorouracil were co-administered with viruses, and cell death kinetics was analyzed over the period of 3 days.
as §2, with “chemotherapeutic agents” for “Fluorouracil”

[4] = Fluorouracil 10 μM, Trabectedin 2.5 nM

Row | Molecule | EC50 [1] | cell death ([2]; Fluorouracil 10 μM) | cell death in the presence of zVAD [2, 4] | cell death in the presence of zVAD relative to treatment without inhibitor [3] | cell death [3] | further results
1 | O=c1[nH]cc(F)c(=O)[nH]1 [Fluorouracil] | ~50 µM | approximately 35% | about 80% | slightly lower | – | cell death in the presence of Necrosulfonamide (NSA) ([2]; necroptosis inhibitor NSA 1 μM, Fluorouracil 10 μM): 45%
2 | TNF alpha | – | – | – | – | – | induction of cell death (HeLa (RIP3^−) cells): failed to induce cell death; cell death (HeLa-RIP3^+ cells): about 70%
3 | N.N.[Cl][Pt][Cl] [Cisplatin] | – | – | – | – | – | ED50 at 48 hours (cell death) [1]: ~10 µg/mL
4 | COc1cc2c(cc1O)CCN[C@]21CS[C@@H]2c3c(OC(C)=O)c(C)c4c(c3[C@H](COC1=O)N1[C@@H]2[C@H]2c3c(cc(C)c(OC)c3O)C[C@@H]([C@@H]1O)N2C)OCO4 [Trabectedin] | ~0.01 µM | approximately 35% | about 95% | – | 33% | cell death in the presence of NSA relative to treatment without inhibitor ([2]; NSA): slightly lower; cell death in the presence of both zVAD and NSA ([2]; zVAD plus NSA, Fluorouracil 10 μM, Trabectedin 2.5 nM): about 60%; cell death in the presence of zVAD ([3]; pan caspase inhibitor zVAD): 87%
5 | CC[C@H](NC(=O)[C@H](C)NC)C(=O)N1C[C@@H](O)C[C@H]1Cc1c(-c2[nH]c3cc(F)ccc3c2C[C@@H]2C[C@H](O)CN2C(=O)[C@H](CC)NC(=O)[C@H](C)NC)[nH]c2cc(F)ccc12 [Birinapant] | ~30 µM | – | – | – | – | cell death in combination with control adenovirus (Ad-CMV-NULL) relative to agent alone (HeLa-RIP3^− cells): same level of cell death as Birinapant alone; also recorded: indistinguishable from that induced by Birinapant alone
6 | B1 | – | ~30% | – | marked, though not complete, rescue of cell death | ~30% | cell death in the presence of zVAD relative to treatment without inhibitor ([3]; listed as IFN gamma): significantly reduced cell death

Reference: US11273170B2, “Methods of treating cancer” (Ascend Biopharmaceuticals Ltd, priority 2016, dated 2022)
